According to patent US20260022142A1, “MACROCYCLIC IMMUNOMODULATORS” (Bristol-Myers Squibb Company, priority 2022, published 2026):
Bridge positions count the residues as written; N and C are the ends. Square brackets hold non-standard residues; d marks the D form. Peptide text beside a SMILES is read from it. * marks the point of attachment. ξ: configuration not given here. Bip = N[C@@H](Cc1ccc(-c2ccccc2)cc1)C(=O)O; Phe(3-Me) = Cc1cccc(C[C@H](N)C(=O)O)c1; hArg = N=C(N)NCCCC[C@H](N)C(=O)O; 4Pal = N[C@@H](Cc1ccncc1)C(=O)O; Cha = N[C@@H](CC1CCCCC1)C(=O)O; Cit = NC(=O)NCCC[C@H](N)C(=O)O; Thr(3ξ) = CC(O)[C@H](N)C(=O)O; Carboxymethyl = O=C(O)C*; Orn = NCCC[C@H](N)C(=O)O; Aun = NCCCCCCCCCCC(=O)O; Dab = NCC[C@H](N)C(=O)O; Dap = NC[C@H](N)C(=O)O; AEEA = NCCOCCOCC(=O)O

Molecular target: T1, PD-1/PD-L1 interaction (PE-labeled human PD-L1-Ig binding to Jurkat cell line over-expressing human PD-1) (Homo sapiens, UniProt Q15116)
T1 construct: expressed in transfected cells; host or cells: Jurkat
Assay: Jurkat-PD-1 Cell Binding High-Content Screening Assay (CBA)
Assay type: cell-based
Conditions: Jurkat cell line over-expressing human PD-1; PE-labeled PD-L1-Ig 20 nM final; read-out: Jurkat hPD1-PDL1 IC50
Procedure, shortened: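 Human PD-L1-Ig carrying a covalent PE label on its Ig tag serves as the probe, applied at 20 nM final to compound-treated (2 h, 37° C) Jurkat-hPD-1 cells in medium with 10% fetal calf serum. After one hour, fixation and nuclear staining precede high-content image analysis.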

T1 sequence (Q15116 25-288): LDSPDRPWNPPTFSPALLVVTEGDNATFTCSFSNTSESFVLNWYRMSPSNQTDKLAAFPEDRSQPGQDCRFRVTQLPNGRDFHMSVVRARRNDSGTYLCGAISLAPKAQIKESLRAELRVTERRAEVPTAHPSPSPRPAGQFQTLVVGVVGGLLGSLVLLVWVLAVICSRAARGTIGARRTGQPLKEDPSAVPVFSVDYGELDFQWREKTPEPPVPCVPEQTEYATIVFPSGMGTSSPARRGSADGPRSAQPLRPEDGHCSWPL

Row | IC50 [µM] | Structure (SMILES)
1 | 0.0155 | CC(C)C[C@H]1NC(=O)[C@H](CCCN)NC(=O)[C@H](C(C)C)NC(=O)[C@H](Cc2ccc(-c3ccccc3)cc2)NC(=O)[C@H](C(C)C)NC(=O)[C@H](Cc2c[nH]c3ccccc23)NC(=O)[C@H](CC(=O)O)NC(=O)[C@H](Cc2ccc(OCC(=O)O)cc2)NC(=O)[C@H](Cc2ccncc2)NC(=O)CSC[C@@H](C(=O)N[C@@H](CCN)C(=O)NCCCCCCCCCCC(=O)O)NC(=O)[C@H](CN)NC(=O)[C@H](C(C)C)NC(=O)[C@H](CC2CCCCC2)NC(=O)[C@H](CCN)NC1=O [Compound 3294] ({CH2CO}-[4Pal]Y(Carboxymethyl)DWV[Bip]V[Orn][dL][Dab][Cha]V[Dap]C[Dab][Aun]-OH; thioether N-14)
2 | 0.0125 | Cc1cccc(C[C@@H]2NC(=O)[C@H](CC(=O)O)NC(=O)[C@H](Cc3c[nH]cn3)NC(=O)[C@H](CCCNC(=N)N)NC(=O)CSC[C@@H](C(=O)NCCOCCOCC(=O)N[C@@H](CCN)C(=O)NCCCCCCCCCCC(=O)O)NC(=O)[C@H](CO)NC(=O)[C@H](C(C)C)NC(=O)[C@H](CC3CCCCC3)NC(=O)[C@H](CCN)NC(=O)[C@@H](CC(C)C)NC(=O)[C@H](CCCN)NC(=O)[C@H](C(C)C)NC(=O)[C@H](Cc3ccc(-c4ccccc4)cc3)NC(=O)[C@H](C(C)C)NC2=O)c1 [Compound 3295] ({CH2CO}-RHD[Phe(3-Me)]V[Bip]V[Orn][dL][Dab][Cha]VSC[AEEA][Dab][Aun]-OH; thioether N-14)
3 | 0.0203 | Cc1cccc(C[C@@H]2NC(=O)[C@H](CC(=O)O)NC(=O)[C@H](Cc3c[nH]cn3)NC(=O)[C@H](CCCNC(=N)N)NC(=O)CSC[C@@H](C(=O)N[C@@H](CCCCN)C(=O)NCCCCCCCCCCC(=O)O)NC(=O)[C@H](CCCN)NC(=O)[C@H](C(C)C)NC(=O)[C@H](CC3CCCCC3)NC(=O)[C@H](CCN)NC(=O)[C@@H](CC(C)C)NC(=O)[C@H](CCCN)NC(=O)[C@H](C(C)C)NC(=O)[C@H](Cc3ccc(-c4ccccc4)cc3)NC(=O)[C@H](C(C)C)NC2=O)c1 [Compound 3296] ({CH2CO}-RHD[Phe(3-Me)]V[Bip]V[Orn][dL][Dab][Cha]V[Orn]CK[Aun]-OH; thioether N-14)
4 | 0.0174 | Cc1cccc(C[C@@H]2NC(=O)[C@H](CC(=O)O)NC(=O)[C@H](Cc3ccc(OCC(=O)O)cc3)NC(=O)[C@H](CCCNC(=N)N)NC(=O)CSC[C@@H](C(=O)N[C@@H](CCN)C(=O)NCCCCCCCCCCC(=O)O)NC(=O)[C@H](C(C)O)NC(=O)[C@H](C(C)C)NC(=O)[C@H](CC3CCCCC3)NC(=O)[C@H](CCN)NC(=O)[C@@H](CC(C)C)NC(=O)[C@H](CCCN)NC(=O)[C@H](CCCNC(N)=O)NC(=O)[C@H](Cc3ccc(-c4ccccc4)cc3)NC(=O)[C@H](C(C)C)NC2=O)c1 (stereo partly drawn) [Compound 3301] ({CH2CO}-RY(Carboxymethyl)D[Phe(3-Me)]V[Bip][Cit][Orn][dL][Dab][Cha]V[Thr(3ξ)]C[Dab][Aun]-OH; thioether N-14)
5 | 0.0141 | Cc1cccc(C[C@@H]2NC(=O)[C@H](CC(=O)O)NC(=O)[C@H](Cc3ccc(OCC(=O)O)cc3)NC(=O)[C@H](CCCCNC(=N)N)NC(=O)CSC[C@@H](C(=O)N[C@@H](CCN)C(=O)NCCCCCCCCCCC(=O)O)NC(=O)[C@H](C(C)O)NC(=O)[C@H](C(C)C)NC(=O)[C@H](CC3CCCCC3)NC(=O)[C@H](CCN)NC(=O)[C@@H](CC(C)C)NC(=O)[C@H](CCCN)NC(=O)[C@H](CCCNC(N)=O)NC(=O)[C@H](Cc3ccc(-c4ccccc4)cc3)NC(=O)[C@H](C(C)C)NC2=O)c1 (stereo partly drawn) [Compound 3302] ({CH2CO}-[hArg]Y(Carboxymethyl)D[Phe(3-Me)]V[Bip][Cit][Orn][dL][Dab][Cha]V[Thr(3ξ)]C[Dab][Aun]-OH; thioether N-14)
6 | 0.0151 | Cc1cccc(C[C@@H]2NC(=O)[C@H](CC(=O)O)NC(=O)[C@H](Cc3ccc(OCC(=O)O)cc3)NC(=O)[C@H](CCCNC(=N)N)NC(=O)CSC[C@@H](C(=O)N[C@@H](CCN)C(=O)NCCCCCCCCCCC(=O)O)NC(=O)[C@H](C(C)O)NC(=O)[C@H](C(C)C)NC(=O)[C@H](CC3CCCCC3)NC(=O)[C@H](CCN)NC(=O)[C@@H](CC(C)C)NC(=O)[C@H](CCCN)NC(=O)[C@H](CCCN)NC(=O)[C@H](Cc3ccc(-c4ccccc4)cc3)NC(=O)[C@H](C(C)C)NC2=O)c1 (stereo partly drawn) [Compound 3303] ({CH2CO}-RY(Carboxymethyl)D[Phe(3-Me)]V[Bip][Orn][Orn][dL][Dab][Cha]V[Thr(3ξ)]C[Dab][Aun]-OH; thioether N-14)
7 | 0.0142 | Cc1cccc(C[C@@H]2NC(=O)[C@H](CC(=O)O)NC(=O)[C@H](Cc3ccc(OCC(=O)O)cc3)NC(=O)[C@H](CCCNC(=N)N)NC(=O)CSC[C@@H](C(=O)N[C@@H](CCN)C(=O)NCCCCCCCCCCC(=O)O)NC(=O)[C@H](C(C)O)NC(=O)[C@H](C(C)C)NC(=O)[C@H](CC3CCCCC3)NC(=O)[C@H](CCN)NC(=O)[C@@H](CC(C)C)NC(=O)[C@H](CCCNC(N)=O)NC(=O)[C@H](CCCN)NC(=O)[C@H](Cc3ccc(-c4ccccc4)cc3)NC(=O)[C@H](C(C)C)NC2=O)c1 (stereo partly drawn) [Compound 3304] ({CH2CO}-RY(Carboxymethyl)D[Phe(3-Me)]V[Bip][Orn][Cit][dL][Dab][Cha]V[Thr(3ξ)]C[Dab][Aun]-OH; thioether N-14)
8 | 0.0065 | Cc1cccc(C[C@@H]2NC(=O)[C@H](CC(=O)O)NC(=O)[C@H](Cc3ccc(OCC(=O)O)cc3)NC(=O)[C@H](CCCNC(=N)N)NC(=O)CSC[C@@H](C(=O)N[C@@H](CCN)C(=O)NCCCCCCCCCCC(=O)O)NC(=O)[C@H](CCCNC(N)=O)NC(=O)[C@H](C(C)C)NC(=O)[C@H](CC3CCCCC3)NC(=O)[C@H](CCN)NC(=O)[C@@H](CC(C)C)NC(=O)[C@H](CCCN)NC(=O)[C@H](CCC(N)=O)NC(=O)[C@H](Cc3ccc(-c4ccccc4)cc3)NC(=O)[C@H](C(C)C)NC2=O)c1 [Compound 3305] ({CH2CO}-RY(Carboxymethyl)D[Phe(3-Me)]V[Bip]Q[Orn][dL][Dab][Cha]V[Cit]C[Dab][Aun]-OH; thioether N-14)
9 | 0.0079 | Cc1cccc(C[C@@H]2NC(=O)[C@H](CC(=O)O)NC(=O)[C@H](Cc3ccc(OCC(=O)O)cc3)NC(=O)[C@H](CCCNC(=N)N)NC(=O)CSC[C@@H](C(=O)N[C@@H](CCN)C(=O)NCCCCCCCCCCC(=O)O)NC(=O)[C@H](CCCN)NC(=O)[C@H](C(C)C)NC(=O)[C@H](CC3CCCCC3)NC(=O)[C@H](CCN)NC(=O)[C@@H](CC(C)C)NC(=O)[C@H](CCCN)NC(=O)[C@H](CCCNC(N)=O)NC(=O)[C@H](Cc3ccc(-c4ccccc4)cc3)NC(=O)[C@H](C(C)C)NC2=O)c1 [Compound 3306] ({CH2CO}-RY(Carboxymethyl)D[Phe(3-Me)]V[Bip][Cit][Orn][dL][Dab][Cha]V[Orn]C[Dab][Aun]-OH; thioether N-14)
10 | 0.0074 | Cc1cccc(C[C@@H]2NC(=O)[C@H](CC(=O)O)NC(=O)[C@H](Cc3ccc(OCC(=O)O)cc3)NC(=O)[C@H](CCCNC(=N)N)NC(=O)CSC[C@@H](C(=O)N[C@@H](CCN)C(=O)NCCCCCCCCCCC(=O)O)NC(=O)[C@H](C(C)O)NC(=O)[C@H](C(C)C)NC(=O)[C@H](CC3CCCCC3)NC(=O)[C@H](CCN)NC(=O)[C@@H](CC(C)C)NC(=O)[C@H](CCN)NC(=O)[C@H](CCCNC(N)=O)NC(=O)[C@H](Cc3ccc(-c4ccccc4)cc3)NC(=O)[C@H](C(C)C)NC2=O)c1 (stereo partly drawn) [Compound 3307] ({CH2CO}-RY(Carboxymethyl)D[Phe(3-Me)]V[Bip][Cit][Dab][dL][Dab][Cha]V[Thr(3ξ)]C[Dab][Aun]-OH; thioether N-14)
